The values below come from patent US10201583B2, “Antioxidant dietary supplement and related method” (priority 2012, dated 2019).

In experiment [1] the test system is HMOX-1 in bovine aortic endothelial cells. The note with it: Motterlini et al. 2000; cited from earlier work.
In experiment [2] the test system is Antioxidant Response Element (ARE). In words: ARE luciferase reporter assay in stably transfected HepG2 cells. Format: cell-based, human. The note with it: individual ingredient at the noted concentration, 48 h, control sulforaphane 10 μM. As to the method:
The formulation including the blend of turmeric, quercetin and rosemary (TQR Blend, also referred to herein as Blend A) was tested to evaluate the ARE of the blend. In particular, the three individual ingredients, turmeric, quercetin and rosemary were tested by themselves and in combination as a blend. In the testing, a conventional assay for determining ARE was utilized. Generally, the assay included the human hepatocyte cell line HepG2 obtained from ATCC of Manassas, Va. that was stably transfected with a vector. The vector contained four repeats of the ARE DNA sequence ([…] ID NO: 1)) upstream of a minimal promoter using the firefly luciferase gene as a reporter. These cells were then treated with the individual ingredients turmeric, quercetin and rosemary, and the TQR Blend in varying concentrations for 48 hours in this and the other noted examples below. The human hepatocytes were lysed, the luciferase substrate, purchased from Biotium of Hayward, Calif., added, and the relative luminescence values were obtained for all samples. The results are shown as a % Response vs. Control. The control substance was sulforaphane at 10 μM.
(A reporter such as luciferase makes a cellular process visible.)

For the molecule `COc1cc(/C=C/C(=O)CC(=O)/C=C/c2ccc(O)c(OC)c2)ccc1O` [curcumin], the “induction of HMOX-1 in endothelial cells” value in experiment [1] was “potent inducer of HMOX-1”.
For `O=c1c(O)c(-c2ccc(O)c(O)c2)oc2cc(O)cc(O)c12` [quercetin], the “% Response vs. Control in ARE assay” value in experiment [2] (TQR Blend 50 μg/ml at 1:3:5) is on record as “about 50%”; in experiment [2] (TQR Blend 60 μg/ml at 1:3:5), “about 75%”; in experiment [2] (TQR Blend 70 μg/ml at 1:3:5), “about 80%”; in experiment [2] (TQR Blend 80 μg/ml at 1:3:5), “about 90%”.
